Results as given in patent US8815901B2 (Novartis AG, priority 2008, dated 2014).

Molecular target: FGFR3 kinase (Homo sapiens (Human), UniProt P22607, K650E)
Experiment: FGFR3 kinase inhibition assay (radiometric filter binding / LanthaScreen TR-FRET)
Type: biochemical
Conditions: read-out: rating (FGFR3 kinase IC50)
Method: Enzyme activities were measured by mixing 10 μL of a 3-fold concentrated compound solution or control with 10 μL of the corresponding substrate mixture (peptidic substrate, ATP and [γ^33P]ATP). The reactions were initiated by addition of 10 μL of a 3-fold concentrated solution of the respective enzyme in assay buffer.
Filter binding (FB) method: FB assays were carried out in 96-well plates at room temperature for 10 min in a finial volume of 30 μL including the components as indicated in section above. […] After spotting, vacuum was connected and each well rinsed with 200 μL 0.5% H3PO4. Free membranes were removed and washed 4 times on a shaker with 1% H3PO4 and once with ethanol. Membranes were dried and overlaid with addition of 10 μL/well of a scintillation fluid. The plates were eventually sealed and counted in a microplate scintillation counter. IC50 values were calculated by linear regression analysis of the percentage inhibition of the compound.
The assay has been run at room temperature on a liquid handling robot. […] After an incubation time of 45 min in the dark, the plates were transferred into a fluorescence reader for counting.
Compounds of formula (I) are assayed to measure their capacity to inhibit FGFR3 kinase as described above.

FGFR3 kinase, sequence (P22607 23-806 K650E): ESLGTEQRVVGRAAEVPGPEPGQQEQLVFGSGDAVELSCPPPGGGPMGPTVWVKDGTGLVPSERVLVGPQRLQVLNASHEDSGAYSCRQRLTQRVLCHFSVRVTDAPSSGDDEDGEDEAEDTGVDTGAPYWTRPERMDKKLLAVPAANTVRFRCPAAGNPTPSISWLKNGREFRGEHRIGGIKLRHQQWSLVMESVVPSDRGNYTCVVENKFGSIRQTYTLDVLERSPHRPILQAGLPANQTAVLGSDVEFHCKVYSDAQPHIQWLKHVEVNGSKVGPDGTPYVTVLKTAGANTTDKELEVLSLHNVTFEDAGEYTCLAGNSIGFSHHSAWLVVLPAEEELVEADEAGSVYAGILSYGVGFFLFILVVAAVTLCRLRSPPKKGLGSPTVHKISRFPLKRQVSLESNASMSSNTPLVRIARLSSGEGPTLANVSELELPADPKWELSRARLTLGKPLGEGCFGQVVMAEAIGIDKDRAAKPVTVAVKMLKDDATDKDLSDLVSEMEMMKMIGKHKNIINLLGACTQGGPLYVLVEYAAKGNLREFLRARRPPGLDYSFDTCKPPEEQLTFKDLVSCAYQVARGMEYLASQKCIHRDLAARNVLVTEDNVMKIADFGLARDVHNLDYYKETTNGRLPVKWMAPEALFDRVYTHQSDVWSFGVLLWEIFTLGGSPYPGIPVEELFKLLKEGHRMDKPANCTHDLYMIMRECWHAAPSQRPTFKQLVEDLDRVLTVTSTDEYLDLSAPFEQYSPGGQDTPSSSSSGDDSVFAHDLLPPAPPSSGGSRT

SMILES | IC50
COc1cc(OC)c(Cl)c(-c2ccc(C(=O)Nc3ccn(CCN(C)C)c3)c3nccnc23)c1Cl [Example 121, 8-(2,6-Dichloro-3,5-dimethoxy-phenyl)-quinoxaline-5-carboxylic acid [1-(2-dimethylamino-ethyl)-1H-pyrrol-3-yl]-amide] | 0.5 to 50 µM
COc1cc(OC)c(Cl)c(-c2ccc(C(=O)Nc3ccc(CN4CCNCC4)nc3)c3ncccc23)c1Cl [Example 171, 5-(2,6-Dichloro-3,5-dimethoxy-phenyl)-quinoline-8-carboxylic acid (6-piperazin-1-ylmethyl-pyridin-3-yl)-amide] | 0.5 to 50 µM
COc1cc(OC)c(Cl)c(-c2ccc(C(=O)Nc3cccnc3)c3ncc(N(C)CCN(C)C)nc23)c1Cl [Example 87, 8-(2,6-Dichloro-3,5-dimethoxy-phenyl)-2-[(2-dimethylamino-ethyl)-methyl-amino]-quinoxaline-5-carboxylic acid pyridin-3-ylamide] | 0.5 to 50 µM
COc1cc(OC)c(Cl)c(-c2ccc(C(=O)Nc3nnc[nH]3)c3nccnc23)c1Cl [Example 17, 8-(2,6-Dichloro-3,5-dimethoxy-phenyl)-quinoxaline-5-carboxylic acid (4H-[1,2,4]triazol-3-yl)-amide] | 0.5 to 50 µM
COc1cc(OC)c(Cl)c(-c2ccc(C(=O)Nc3ccc(CN4CCN(C)CC4)nc3)c3ncccc23)c1Cl [Example 168, 5-(2,6-Dichloro-3,5-dimethoxy-phenyl)-quinoline-8-carboxylic acid [6-(4-methyl-piperazin-1-ylmethyl)-pyridin-3-yl]-amide] | 0.1 to 0.5 µM
COc1cc(OC)c(Cl)c(-c2ccc(C(=O)Nc3cnc[nH]3)c3ncccc23)c1Cl [Example 162, 5-(2,6-Dichloro-3,5-dimethoxy-phenyl)-quinoline-8-carboxylic acid (3H-imidazol-4-yl)-amide] | 0.1 to 0.5 µM
COc1cc(OC)c(Cl)c(-c2ccc(C(=O)Nc3nccn3Cc3ccccc3)c3ncccc23)c1Cl [Example 160, 5-(2,6-Dichloro-3,5-dimethoxy-phenyl)-quinoline-8-carboxylic acid (1-benzyl-1H-imidazol-2-yl)-amide] | 0.5 to 50 µM
COc1cc(OC)c(Cl)c(-c2ccc(C(=O)Nc3ccc(OCCN(C)C)cc3)c3nccnc23)c1Cl [Example 5, 8-(2,6-Dichloro-3,5-dimethoxy-phenyl)-quinoxaline-5-carboxylic acid [4-(2-dimethylamino-ethoxy)-phenyl]-amide] | < 0.1 µM
COc1cc(OC)c(Cl)c(-c2ccc(C(=O)Nc3ccc(N(C)C4CCN(C)CC4)nc3)c3nccnc23)c1Cl [Example 37, 8-(2,6-Dichloro-3,5-dimethoxy-phenyl)-quinoxaline-5-carboxylic acid {6-[methyl-(1-methyl-piperidin-4-yl)-amino]-pyridin-3-yl}-amide] | < 0.1 µM
COc1cc(OC)c(F)c(-c2ccc(C(=O)Nc3cccnc3)c3nccnc23)c1F [Example 90, 8-(2,6-Difluoro-3,5-dimethoxy-phenyl)-quinoxaline-5-carboxylic acid pyridin-3-ylamide] | 0.1 to 0.5 µM
COc1cc(OC)c(Cl)c(-c2ccc(C(=O)Nc3ncc[nH]3)c3ncccc23)c1Cl [Example 161, 5-(2,6-Dichloro-3,5-dimethoxy-phenyl)-quinoline-8-carboxylic acid (1H-imidazol-2-yl)-amide] | < 0.1 µM
COc1cc(OC)c(Cl)c(-c2ccc(C(=O)Nc3ccc(N4CCN(C(C)C)CC4)nc3)c3nccnc23)c1Cl [Example 33, 8-(2,6-Dichloro-3,5-dimethoxy-phenyl)-quinoxaline-5-carboxylic acid [6-(4-isopropyl-piperazin-1-yl)-pyridin-3-yl]-amide] | < 0.1 µM
COc1cc(OC)c(Cl)c(-c2ccc(C(=O)Nc3nnc[nH]3)c3ncccc23)c1Cl [Example 163] | 0.5 to 50 µM
COc1ccc(Cl)c(-c2ccc(C(=O)Nc3ccc(OCCN(C)C)cc3)c3nccnc23)c1 [Example 65, 8-(2-Chloro-5-methoxy-phenyl)-quinoxaline-5-carboxylic acid [4-(2-dimethylamino-ethoxy)-phenyl]-amide] | 0.5 to 50 µM
COc1cc(OC)c(Cl)c(-c2ccc(C(=O)Nc3ccc(O)cc3)c3nccnc23)c1Cl [Example 7, 8-(2,6-Dichloro-3,5-dimethoxy-phenyl)-quinoxaline-5-carboxylic acid (4-hydroxyphenyl)-amide] | 0.5 to 50 µM

Second part, the compound after the results:

IC50 | SMILES
0.1 to 0.5 µM | CCN1CCN(Cc2ccc(NC(=O)c3ccc(-c4c(Cl)c(OC)cc(OC)c4Cl)c4cccnc34)nc2)CC1 [Example 165, 5-(2,6-Dichloro-3,5-dimethoxy-phenyl)-quinoline-8-carboxylic acid [5-(4-ethyl-piperazin-1-ylmethyl)-pyridin-2-yl]-amide]
< 0.1 µM | COc1cc(OC)c(F)c(-c2ccc(C(=O)Nc3ccc(CN4CCS(=O)(=O)CC4)cn3)c3nccnc23)c1F [Example 140, 8-(2,6-Difluoro-3,5-dimethoxy-phenyl)-quinoxaline-5-carboxylic acid [5-(1,1-dioxo-thiomorpholin-4-ylmethyl)-pyridin-2-yl]-amide]
0.1 to 0.5 µM | CCN1CCN(Cc2ccc(NC(=O)c3ccc(-c4c(Cl)c(OC)cc(OC)c4Cl)c4cccnc34)cn2)CC1 [Example 169, 5-(2,6-Dichloro-3,5-dimethoxy-phenyl)-quinoline-8-carboxylic acid [6-(4-ethyl-piperazin-1-ylmethyl)-pyridin-3-yl]-amide]
< 0.1 µM | COc1cc(OC)c(F)c(-c2ccc(C(=O)Nc3ccc(CN4CCN(C)CC4)nc3)c3nccnc23)c1F [Example 89, 8-(2,6-Difluoro-3,5-dimethoxy-phenyl)-quinoxaline-5-carboxylic acid [6-(4-methyl-piperazin-1-ylmethyl)-pyridin-3-yl]-amide]
< 0.1 µM | CCN1CCN(Cc2ccc(NC(=O)c3ccc(-c4c(F)c(OC)cc(OC)c4F)c4nccnc34)cn2)CC1 [Example 88, 8-(2,6-Difluoro-3,5-dimethoxy-phenyl)-quinoxaline-5-carboxylic acid [6-(4-ethyl-piperazin-1-ylmethyl)-pyridin-3-yl]-amide]
0.5 to 50 µM | CCN1CCN(Cc2ccc(NC(=O)c3ccc(-c4cc(OC)cc(OC)c4)c4nccnc34)nc2)CC1 [Example 115, 8-(3,5-Dimethoxy-phenyl)-quinoxaline-5-carboxylic acid [5-(4-ethyl-piperazin-1-ylmethyl)-pyridin-2-yl]-amide]
< 0.1 µM | COc1cc(OC)c(Cl)c(-c2ccc(C(=O)Nc3ccc(CN(C)CCN(C)C)cn3)c3nccnc23)c1Cl [Example 81, 8-(2,6-Dichloro-3,5-dimethoxy-phenyl)-quinoxaline-5-carboxylic acid (5-{[(2-dimethylamino-ethyl)-methyl-amino]-methyl}-pyridin-2-yl)-amide]
< 0.1 µM | CCN1CCN(c2ccc(NC(=O)c3ccc(-c4c(Cl)c(OC)cc(OC)c4Cl)c4nccnc34)cc2)CC1 [Example 1, 8-(2,6-Dichloro-3,5-dimethoxy-phenyl)-quinoxaline-5-carboxylic acid [4-(4-ethylpiperazin-1-yl)-phenyl]-amide]
< 0.1 µM | COc1cc(OC)c(Cl)c(-c2ccc(C(=O)Nc3ccc(CN4CCN(C)CC4)cn3)c3ncccc23)c1Cl [Example 164, 5-(2,6-Dichloro-3,5-dimethoxy-phenyl)-quinoline-8-carboxylic acid [5-(4-methyl-piperazin-1-ylmethyl)-pyridin-2-yl]-amide]
0.5 to 50 µM | CCN1CCN(c2ccc(NC(=O)c3ccc(-c4c(C)cccc4C)c4nccnc34)cc2)CC1 [Example 72, 8-(2,6-Dimethyl-phenyl)-quinoxaline-5-carboxylic acid [4-(4-ethyl-piperazin-1-yl)-phenyl]-amide]
< 0.1 µM | COc1cc(OC)c(F)c(-c2ccc(C(=O)Nc3nc(CN4CCN(C)CC4)c[nH]3)c3nccnc23)c1F [Example 141, 8-(2,6-Difluoro-3,5-dimethoxy-phenyl)-quinoxaline-5-carboxylic acid [4-(4-methyl-piperazin-1-ylmethyl)-1H-imidazol-2-yl]-amide]
0.5 to 50 µM | COc1cc(OC)cc(-c2ccc(C(=O)Nc3ccc(CN4CCNCC4)cn3)c3nccnc23)c1 [Example 117]
0.1 to 0.5 µM | COc1cc(OC)c(Cl)c(-c2ccc(C(=O)Nc3ccc(CN4CCS(=O)(=O)CC4)cn3)c3nccnc23)c1Cl [Example 104, 8-(2,6-Dichloro-3,5-dimethoxy-phenyl)-quinoxaline-5-carboxylic acid [5-(1,1-dioxothiomorpholin-4-ylmethyl)-pyridin-2-yl]-amide]
